Reference: patent publication US11623008B2, “Excipient compositions for mucoadhesive pharmaceutical compositions including a synergistic combination of amylopectin, pullulan, hyaluronic acid, and xyloglucan” (Professional Compounding Centers of America (PCCA), priority 2014, dated 2023)

Key:
[1] = system: EpiVaginal tissue model, human vaginal mucosa; experiment: Safety and toxicological profile on human vaginal mucosa (MTT cell viability); assay type: cell-based; conditions: Triton X-100 at 1%
Method: This study was conducted to evaluate the safety and toxicological profile of disclosed excipient compositions in comparison to Triton X-100 (positive control) by employing the EpiVaginal™ tissue model, developed by the MatTek Corporation (Ashland, Mass., USA), which is a highly differentiated 3D model of the human vaginal mucosa. The EpiVaginal™ multi-layered tissue model comprises normal, human-derived vaginal-ectocervical (VEC) epithelial and dendritic cells (DC), cultured and differentiated to resemble the growth and morphological characteristics of the human vaginal mucosa. Triton X-100 is a non-ionic surfactant that can be used as a solubilizer, stabilizer, and emulsifier.
Methodology: Following tissue preparation, within a 6-well plate, 100 μL of disclosed excipient composition at 100% and Triton X-100 at 1% were applied onto separate EpiVaginal tissue samples and left to incubate at 37° C. for 45 minutes to 20 hours. Following incubation, tissues were rinsed twice with Phosphate Buffer Saline (PBS) and excess liquid was removed. A 300 μL of 3-[4,5-dimethylthiazol-2yl]-2,5-diphenyltetrazolium bromide (MTT) solution was then added to the tissues and left to incubate for 3 hours. MTT served as an indicator of cell viability. Succinate dehydrogenase enzymes within the mitochondria of viable cells have the ability to reduce soluble yellow tetrazonium salt of MTT to an insoluble purple formazan derivative. Tissues were then immersed in 2 mL of extraction solution and sealed in a plastic bag to soak overnight at room temperature. Excess liquid was decanted the following day, the remaining extractant solution was agitated, and 200 μL aliquot of each extract was evaluated with a Molecular Device SpectraMax® M5 Microplate Reader. This device quantifies the absorbance potential of the samples at 570 nm, a wavelength absorbed by the formazan derivative.

[2] = system: EpiOral tissue model (ORL-200), human oral mucosa; experiment: Safety and toxicological profile on human oral mucosa (MTT cell viability); assay type: cell-based; conditions: excipient composition at 50%, Triton X-100 at 1%; for mean percent viability: mean of two experiments
Method: This study was conducted to evaluate the safety and toxicological profile of disclosed excipient compositions in comparison to Triton X-100 (positive control) and distilled water (negative control), using a 3D model of the human oral mucosa. Triton X-100 is a non-ionic surfactant, which is not approved for oral use.
Methodology: The materials used in this study include EpiOral™ tissue samples, disclosed excipient composition (Lot: 6481454) at 50% (diluted in distilled water), and Triton X-100 at 1%. The EpiOral™ tissue model (ORL-200) comprises of normal human-derived non-keratinized oral epithelial cells, cultured and differentiated to resemble the native buccal tissue of the human oral mucosa. Following tissue preparation, 40 μL of disclosed excipient composition at 50% and Triton X-100 at 1% were applied onto separate EpiOral tissue samples and left to incubate at 37° C. Incubation intervals were 1, 4.5, and 20 hours. Application of distilled water on an EpiOral tissue served as the negative control. After the allotted exposure time, each tissue was rinsed twice with phosphate buffer saline (PBS) and excess liquid was removed. Afterwards, 300 μL of 3-[4,5-dimethylthiazol-2yl]-2,5-diphenyltetrazolium bromide (MTT) solution was added to the EpiOral tissues and left to incubate for 3 hours. MTT was used as an indicator of cell viability. Succinate dehydrogenase enzymes within the mitochondria of viable cells have the ability to reduce soluble yellow tetrazonium salt of MTT to an insoluble purple formazan derivative. After 3 hours of exposure to MTT, the tissues were immersed in 2 mL of extraction solution, sealed in a plastic bag, and stored at room temperature overnight. The excess liquid was then decanted and the remaining extractant solution was agitated. A 200 μL aliquot of each extract was evaluated using a Molecular Device SpectraMax® M5 Microplate Reader. This device quantifies the absorbance potential of the samples at 570 nm, a wavelength absorbed by reduced MTT. This experiment was repeated two months following initial testing using identical methodology and the Electrolyte Saliva Gel (PCCA Formula #11150), which consists of sodium chloride, potassium chloride, calcium chloride, and a flavor extract in disclosed excipient composition (Lot: 6481454) at 50% (diluted in distilled water).
Results and Discussion: Toxicological profiles for disclosed excipient composition and the positive control, Triton X-100 at 1%, were compared by examining absorbancy potentials of the extracts collected from both experiments. […] Mean percent cell viabilities were calculated for the two experiments and are illustrated in FIG. 3. […]

For Triton X-100, the percent cell viability ([1]; 45 minutes exposure) was 97%, the percent cell viability ([1]; 2 hours exposure) was 26% and the “ET50, time when percent cell viability is reduced to 50%” value ([1]; estimated from semi-log plot) was 86.4 min. It also gave a mean percent viability ([2]; 1 hour exposure) of 117%, a mean percent viability ([2]; 4.5 hours exposure) of 30% and a mean percent viability ([2]; 20 hours exposure) of 6%. For the same substance, the “ET50, the time at which percent viability would be 50%” value ([2]; estimated from semi-log plot) was 3.2 h.
